For assay [1], the system named is TA3. Put plainly: Cytotoxicity against mouse TA3 cells assessed as concentration required to produce 50% decrease in protein production. The format is functional.
Assay [2] is filed under the species Gallus gallus. As to the kind of experiment: Competitive binding affinity to tubulin in chick embryo brain by radioactive colchicine displacement assay. The format is tissue-based.
In assay [3] the test system is L5178Y. As to the kind of experiment: Cytotoxicity against mouse L5178Y cells assessed as concentration required to produce 50% inhibition of cell count in suspension of growing cells. Type of assay: functional.
Assay [4] concerns P815. As to the kind of experiment: Cytotoxicity against mouse P815 cells assessed as concentration required to produce 50% arrest of mitotic activity. Type of assay: functional.
For assay [5], the species on record is Gallus gallus. As to the kind of experiment: Inhibition of tubulin in chick brain assessed as concentration required to inhibit microtubule formation by 50%.
For assay [6], the species on record is Gallus gallus. Put plainly: Inhibition of tubulin in chick brain assessed as concentration required to inhibit microtubule formation by 50% relative to podophyllotoxin. The settings on record: concentration not given here.
Assay [7] has as its system TA3. As to the kind of experiment: Anticancer activity against mouse TA3 cells allografted in mouse. The format is functional, cell-based.
Assay [8] has as its system TLX-5. Put plainly: Anticancer activity against mouse TLX5 cells allografted in mouse. The format is functional, cell-based.
The subject of assay [9] is L1210. As to the kind of experiment: Anticancer activity against mouse L1210 cells allografted in mouse. Type of assay: functional, cell-based.
Assay [10] is filed under the species Gallus gallus. Put plainly: Competitive binding affinity to tubulin in chick embryo brain by radioactive colchicine displacement assay relative to podophyllotoxin.
Assay [11] relates to Caelifera. As to the kind of experiment: Competitive binding affinity to tubulin in grasshopper embryo by radioactive colchicine displacement assay.
Assay [12] is described as follows: In vivo inhibition of microtubule assembly in Stentor coeruleus assessed as minimum concentration required to delay regeneration of ciliated oral apparatus by […] analysis relative to podophyllotoxin. Type of assay: functional.
The nature of assay [13]: In vivo inhibition of microtubule assembly in Stentor coeruleus assessed as minimum concentration required to delay regeneration of ciliated oral apparatus by […] analysis. Type of assay: functional.

The source made the active and inactive calls. The rule behind the calls is not given here. A value given as a limit tells only on which side of the number the result lay.

Regarding `COc1cc([C@H]2c3cc4c(cc3C[C@H]3CC(=O)C[C@@H]32)OCO4)cc(OC)c1OC`, the Activity in assay [1] was 15 ×10⁻⁷ M; in [3], 15 ×10⁻⁷ M; in assay [4], 1 ×10⁻⁷ M; in assay [5] it was 50 ×10⁻⁷ M. In addition, the KA in [2] was determined as 0.02 ×10⁶ L/mol.
By inhibition is commonly meant the percentage by which the read-out fell short of the control. On to `COc1cc([C@H]2c3cc4c(cc3C[C@H]3COC[C@@H]32)OCO4)cc(OC)c1OC`, for which the Activity amounted to 6 ×10⁻⁷ M in assay [1]; 1.4 ×10⁻⁷ M in assay [3]; 0.52 ×10⁻⁷ M in [4]; 8 ×10⁻⁷ M in assay [5]; 20% in assay [10]. Further, the KA in assay [2] amounted to 0.4 ×10⁶ L/mol. In addition, the inhibition in assay [6] stood at 75%. Further, the outcome in assay [7], in [8] and in assay [9] was inactive.
On to `COc1cc([C@H]2c3cc4c(cc3[C@@H](O)[C@H]3COC(=O)[C@@H]23)OCO4)cc(OC)c1OC`, for which the KA in [11] came to 0.037 ×10⁶ L/mol. Besides, the Activity in assay [4] is 1.9 ×10⁻⁷ M.
Take `COc1cc([C@H]2c3cc4c(cc3C[C@H]3COC(=O)[C@H]32)OCO4)cc(OC)c1OC` [ISOPICRODEOXYPODOPHYLLOTOXIN]: the Activity in assay [4] amounted to 1.3 ×10⁻⁷ M.
In the case of `COc1cc([C@H]2c3cc4c(cc3[C@@H](O)[C@H]3COC[C@H]23)OCO4)cc(OC)c1OC`, the Activity in [1] stood at 6 ×10⁻⁷ M; in assay [3] it was 1.3 ×10⁻⁷ M; in assay [4] it was 0.59 ×10⁻⁷ M; in assay [5], 10 ×10⁻⁷ M; in [10], 13%. Besides, in [2], the KA was 0.2 ×10⁶ L/mol. In addition, in assay [12], the “inhibition (INH)” value is on record as 20%. The MEC in assay [13] amounted to 20 µM. Also, in [6], the inhibition turned out to be 60%. Besides, the result in assay [7], in assay [8] and in assay [9] was inactive.
`COc1cc([C@H]2c3cc4c(cc3[C@@H](O)[C@H]3COC(=O)[C@H]23)OCO4)cc(OC)c1OC`: the Activity is 3 ×10⁻⁷ M in assay [1], 0.14 ×10⁻⁷ M in [3], 0.12 ×10⁻⁷ M in assay [4] and 6 ×10⁻⁷ M in [5]. For the same compound, the KA in assay [2] worked out at 2 ×10⁶ L/mol. Also, the MEC in [13] was 4 µM. Besides, the outcome in assay [7], in assay [8] and in assay [9] was inactive.
Take `COc1cc([C@H]2c3cc4c(cc3C[C@H]3CS(=O)(=O)C[C@@H]32)OCO4)cc(OC)c1OC`: the Activity in assay [1] was over 100 ×10⁻⁷ M; in assay [3], 139 ×10⁻⁷ M; in assay [4], 69 ×10⁻⁷ M; in assay [5], over 500 ×10⁻⁷ M. Also, the result in assay [2] was Active.
Consider `COc1cc([C@H]2c3cc4c(cc3C[C@H]3CCC[C@@H]32)OCO4)cc(OC)c1OC`, for which the Activity in [1] is 50 ×10⁻⁷ M; in [3], 16 ×10⁻⁷ M; in assay [4], 6.5 ×10⁻⁷ M; in assay [5], 50 ×10⁻⁷ M. Besides, the KA in [2] came to 0.02 ×10⁶ L/mol.
On to `COc1cc([C@H]2c3cc4c(cc3[C@@H](O)[C@H]3CS(=O)(=O)C[C@H]23)OCO4)cc(OC)c1OC`, for which the Activity was over 100 ×10⁻⁷ M in [1], over 220 ×10⁻⁷ M in [3], over 220 ×10⁻⁷ M in assay [4] and over 1000 ×10⁻⁷ M in assay [5]. Also, the outcome in [2] was Active.
Regarding `COc1cc([C@H]2c3cc4c(cc3[C@@H](O)[C@H]3CSC[C@H]23)OCO4)cc(OC)c1OC`, the Activity in [1] came to 60 ×10⁻⁷ M; in [3] it was 14 ×10⁻⁷ M; in assay [4], 4.3 ×10⁻⁷ M; in assay [5] it was 100 ×10⁻⁷ M. The outcome in [2] was Active.
The like results for `COc1cc([C@H]2c3cc4c(cc3C[C@H]3CSC[C@@H]32)OCO4)cc(OC)c1OC` were, in that order, 50 ×10⁻⁷ M, 15 ×10⁻⁷ M, 6 ×10⁻⁷ M, 100 ×10⁻⁷ M and “Active”.
For `COc1cc([C@H]2c3cc4c(cc3C[C@H]3COC(=O)[C@@H]32)OCO4)cc(OC)c1OC`, the KA in [2] worked out at 2 ×10⁶ L/mol. Further, in [4], the Activity is 0.05 ×10⁻⁷ M.

For the origin of these results see ChEMBL document CHEMBL3244094, “Nonenolizable podophyllotoxin derivatives” (1977).
